According to patent publication US20210161997A1, “TREATING DISEASES VIA TARGETED MODULATION OF GENE SIGNALING NETWORKS” (Camp4 Therapeutics Corporation, priority 2018, published 2021):

Legend:
JAG1 = test: RNA-seq of JAG1 expression in compound-treated primary human hepatocytes; assay type: cell-based; settings: for JAG1 Fold Change (Log2): primary human hepatocytes; for Significant modulation of JAG1 (in words): summary of Table 6
Outline: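 Cryopreserved primary human hepatocytes from three donors, switched to serum-free medium 2 h before compound addition, were harvested about 18 h after treatment. Poly(A) mRNA was sequenced and aligned to GENCODE release 24, with DESeq2 negative binomial differential expression. Fold change is the treated level over the unperturbed level.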

SLC37A4 = test: RNA-seq of SLC37A4 expression in compound-treated primary human hepatocytes; assay type: cell-based
Description: Human hepatocytes were obtained from two donors from Massachusetts General Hospital, namely MGH54 and MGH63, and one donor from Lonza, namely HUM4111B. Cryopreserved hepatocytes were cultured in plating media for 16 hours, transferred to maintenance media for 4 hours. Cultured on serum-free media for 2 hours, then a compound was added. The hepatocytes were maintained on the serum-free media for 16 hours prior to gene expression analysis. Primary human hepatocytes were stored in the vapor phase of a liquid nitrogen freezer (about −130° C.).
Human hepatocytes cultured as described above were plated in 24-well format, adding 375,000 cells per well in a volume of 500 ul plating medium. Four hours before treatment, cells were washed with PBS and the medium was changed to either: fresh maintenance medium (complete) or modified maintenance medium.
Compound stocks were prepared at 1000× final concentration and added in a 2-step dilution to the medium to reduce risk of a compound precipitating out of solution when added to the cells, and to ensure reasonable pipetting volumes. One at a time, each compound was first diluted 10-fold in warm (about 37° C.) modified maintenance medium (initial dilution=ID), mixed by vortexing, and the ID was diluted 100-fold into the cell culture (e.g. 5.1 ul into 1 well of a 24-well plate containing 0.5 mL medium). The plate was mixed by carefully swirling and after all wells were treated and returned to the incubator overnight. If desired, separate plates/wells were treated with vehicle-only controls and/or positive controls. If using multi-well plates, controls were included on each plate. After about 18 hours, cells were harvested for further analysis, e.g., ChIP-seq, RNA-seq, ATAC-seq, etc.
This protocol is a modified version of the following protocols: MagMAX mirVana Total RNA Isolation Kit User Guide (Applied Biosystems #MAN0011131 Rev B.0), NEBNext Poly(A) mRNA Magnetic Isolation Module (E7490), and NEBNext Ultra Directional RNA Library Prep Kit for Illumina (E7420) (New England Biosystems #E74901).
The MagMAX mirVana kit instructions (the section titled “Isolate RNA from cells” on pages 14-17) were used for isolation of total RNA from cells in culture. Two hundred μl of Lysis Binding Mix was used per well of the multiwell plate containing adherent cells (usually a 24-well plate).
For mRNA isolation and library prep, the NEBNext Poly(A) mRNA Magnetic Isolation Module and Directional Prep kit was used. RNA isolated from cells above was quantified, and prepared in […] of each sample in 50 μl of nuclease-free water. This protocol may be run in microfuge tubes or in a 96-well plate.
All pass filter reads from each sample were mapped against the human genome (assembly GRCh38/GCA_000001405.15 “no alt” analysis set merged with hs38d1/GCA_000786075.2) using two pass mapping via STAR version 2.5.3a (alignment parameters alignIntronMin=20; alignIntronMax=1000000; outFilterMismatchNmax=999; outFilterMismatchNoverLmax=0.05; outFilterType=BySJout; outFilterMultimapNmax=20; alignSJoverhangMin=8; alignSJDBoverhangMin=1; alignMatesGapMax=1000000) (Dobin et al., Bioinformatics (2012) 29(1):15-21). Genomic alignments were converted to transcriptome alignments based on reference transcript annotations from the Human GENCODE Gene Set release 24 (Harrow et al., Genome Res. (2012) 22(9): 1760-1774). Using unique and multimapped transcriptomic alignments, gene-level abundance estimates were computed using RSEM version 1.3.0 (Li and Dewey, BMC Bioinformatics (2011) 12:323) in a strand-aware manner, and including confidence interval sampling calculations, to arrive at posterior mean estimates (PME) of abundances (counts and normalized FPKM—fragments per kilobase of exon per million mapped fragments) from the underlying Bayesian model. Standard QC were applied (read integrity, mapping statistics, library complexity, fragment bias) to remove unsatisfactory samples.

SMILES | JAG1 Fold Change (Log2) (JAG1) | Significant modulation of JAG1 (in words) (JAG1) | SLC37A4 Fold Change (Log2) (SLC37A4)
S=C(NCc1ccc2c(c1)OCO2)N1CCN(c2ncnc3c2oc2ccccc23)CC1 [Amuvatinib] | 0.74 | significantly modulate only JAG1 | 0.97
O=C1CCC(N2C(=O)c3ccccc3C2=O)C(=O)N1 (stereo not drawn) [Thalidomide] | 1.30 | significantly modulate only JAG1 | 0.64
